Laboratory results taken from patent publication US20250170248A1, “SMARCA DEGRADERS AND USES THEREOF” (Kymera Therapeutics, Inc., priority 2021, published 2025).

Experiments:
Assay type in all cases: cell-based
SMARCA2 [1] = target: T1, SMARCA2 (Homo sapiens, UniProt P51531); assay: MSD SMARCA2 degradation in A549 cell line; settings: for Dmax: A549, A549 cells; for Dmax / DC50: 24 h; for DC50: read-out: SMARCA2 MSD A549 degradation 24 h: Average external-Abs DC50
Method in brief: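 A549 cells treated 24 h with compound, 3-fold series from 1000 nM. Lysates captured on MSD plates and SMARCA2 quantified with anti-SMARCA2 and SULFO-TAG secondary antibodies (electrochemiluminescence). DC50 and Dmax (% degradation at 24 h) reported as letter bins.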

SMARCA4 = target: T2, SMARCA4 (Homo sapiens, UniProt P51532); assay: SMARCA4 Western blot degradation in MV4-11 cells; settings: for Dmax: MV4-11, MV4-11 cells, read-out: SMARCA4 MSD MV411 degradation 24 h: average Dmax %; for Dmax / DC50: 24 h; for DC50 / SMARCA4 MSD MV411 degradation 24 h: average Dmax %: MV4-11 cells; for DC50: read-out: SMARCA4 MSD MV411 degradation 24 h: Mean external-Abs DC50
T2 construct: SMARCA2/SMARCA4 protein degradation selectivity in MV4-11 cells; endogenous in cells; host or cells: MV4-11
T2 sequence (P51532 whole entry): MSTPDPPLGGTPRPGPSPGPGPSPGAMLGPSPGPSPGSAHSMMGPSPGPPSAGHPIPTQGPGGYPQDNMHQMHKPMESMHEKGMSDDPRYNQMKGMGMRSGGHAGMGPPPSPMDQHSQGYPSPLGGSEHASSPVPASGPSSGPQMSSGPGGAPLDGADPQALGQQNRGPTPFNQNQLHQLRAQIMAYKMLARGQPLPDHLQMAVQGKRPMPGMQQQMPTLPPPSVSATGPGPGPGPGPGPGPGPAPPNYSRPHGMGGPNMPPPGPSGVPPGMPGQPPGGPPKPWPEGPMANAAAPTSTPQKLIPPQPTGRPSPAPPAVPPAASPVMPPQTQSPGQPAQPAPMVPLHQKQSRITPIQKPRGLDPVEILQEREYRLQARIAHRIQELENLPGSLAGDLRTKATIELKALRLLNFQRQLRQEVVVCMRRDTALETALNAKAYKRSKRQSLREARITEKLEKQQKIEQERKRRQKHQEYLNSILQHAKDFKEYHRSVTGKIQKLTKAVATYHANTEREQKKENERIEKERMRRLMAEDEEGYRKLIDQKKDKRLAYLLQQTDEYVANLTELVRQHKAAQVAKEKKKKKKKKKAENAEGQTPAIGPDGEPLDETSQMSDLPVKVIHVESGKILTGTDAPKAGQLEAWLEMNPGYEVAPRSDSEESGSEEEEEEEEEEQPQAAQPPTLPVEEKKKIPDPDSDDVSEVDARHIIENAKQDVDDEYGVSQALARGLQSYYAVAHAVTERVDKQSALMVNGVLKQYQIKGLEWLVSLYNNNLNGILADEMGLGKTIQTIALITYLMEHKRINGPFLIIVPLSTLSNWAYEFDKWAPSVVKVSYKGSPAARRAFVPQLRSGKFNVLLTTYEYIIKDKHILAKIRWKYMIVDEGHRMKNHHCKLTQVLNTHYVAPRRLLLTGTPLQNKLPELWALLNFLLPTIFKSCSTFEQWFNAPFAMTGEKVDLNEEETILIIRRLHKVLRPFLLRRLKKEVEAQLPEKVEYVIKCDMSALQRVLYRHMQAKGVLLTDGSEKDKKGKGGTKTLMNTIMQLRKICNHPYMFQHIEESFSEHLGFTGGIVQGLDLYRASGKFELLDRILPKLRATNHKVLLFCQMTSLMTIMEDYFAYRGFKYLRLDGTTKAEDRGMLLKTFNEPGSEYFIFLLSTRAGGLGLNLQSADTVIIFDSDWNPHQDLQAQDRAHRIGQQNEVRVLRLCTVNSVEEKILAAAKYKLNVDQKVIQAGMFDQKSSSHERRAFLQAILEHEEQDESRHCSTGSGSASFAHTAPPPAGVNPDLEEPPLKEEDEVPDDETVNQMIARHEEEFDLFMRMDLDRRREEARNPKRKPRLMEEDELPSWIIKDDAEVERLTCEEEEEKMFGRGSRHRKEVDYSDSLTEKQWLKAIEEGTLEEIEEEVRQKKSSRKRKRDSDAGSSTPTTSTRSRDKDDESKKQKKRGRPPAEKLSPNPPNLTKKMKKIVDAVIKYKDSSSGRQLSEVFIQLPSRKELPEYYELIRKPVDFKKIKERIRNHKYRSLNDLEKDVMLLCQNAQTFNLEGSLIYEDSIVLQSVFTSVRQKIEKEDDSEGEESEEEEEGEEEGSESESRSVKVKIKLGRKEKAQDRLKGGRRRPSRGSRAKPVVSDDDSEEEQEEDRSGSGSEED
Method in brief: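 24 h compound exposure, MV4-11; RIPA lysates → SDS-PAGE → NC membrane; anti-SMARCA2/BRM, anti-BRG1, β-actin loading control; LI-COR fluorescence read. DC50 and Dmax at 24 h reported as letter bins.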

SMARCA2 [2] = target: T1, SMARCA2; assay: SMARCA2 Western blot degradation in MV4-11 cells; parameters: SMARCA2/SMARCA4 protein degradation selectivity in MV4-11 cells; endogenous in cells; host or cells: MV4-11; settings: for Dmax: MV4-11, MV4-11 cells, read-out: SMARCA2 MSD MV411 degradation 24 h: average Dmax %; for DC50: read-out: SMARCA2 MSD MV411 degradation 24 h: Mean external-Abs DC50; for Selectivity in MV411: SMARCA2/4 selectivity

T1 sequence (P51531 whole entry): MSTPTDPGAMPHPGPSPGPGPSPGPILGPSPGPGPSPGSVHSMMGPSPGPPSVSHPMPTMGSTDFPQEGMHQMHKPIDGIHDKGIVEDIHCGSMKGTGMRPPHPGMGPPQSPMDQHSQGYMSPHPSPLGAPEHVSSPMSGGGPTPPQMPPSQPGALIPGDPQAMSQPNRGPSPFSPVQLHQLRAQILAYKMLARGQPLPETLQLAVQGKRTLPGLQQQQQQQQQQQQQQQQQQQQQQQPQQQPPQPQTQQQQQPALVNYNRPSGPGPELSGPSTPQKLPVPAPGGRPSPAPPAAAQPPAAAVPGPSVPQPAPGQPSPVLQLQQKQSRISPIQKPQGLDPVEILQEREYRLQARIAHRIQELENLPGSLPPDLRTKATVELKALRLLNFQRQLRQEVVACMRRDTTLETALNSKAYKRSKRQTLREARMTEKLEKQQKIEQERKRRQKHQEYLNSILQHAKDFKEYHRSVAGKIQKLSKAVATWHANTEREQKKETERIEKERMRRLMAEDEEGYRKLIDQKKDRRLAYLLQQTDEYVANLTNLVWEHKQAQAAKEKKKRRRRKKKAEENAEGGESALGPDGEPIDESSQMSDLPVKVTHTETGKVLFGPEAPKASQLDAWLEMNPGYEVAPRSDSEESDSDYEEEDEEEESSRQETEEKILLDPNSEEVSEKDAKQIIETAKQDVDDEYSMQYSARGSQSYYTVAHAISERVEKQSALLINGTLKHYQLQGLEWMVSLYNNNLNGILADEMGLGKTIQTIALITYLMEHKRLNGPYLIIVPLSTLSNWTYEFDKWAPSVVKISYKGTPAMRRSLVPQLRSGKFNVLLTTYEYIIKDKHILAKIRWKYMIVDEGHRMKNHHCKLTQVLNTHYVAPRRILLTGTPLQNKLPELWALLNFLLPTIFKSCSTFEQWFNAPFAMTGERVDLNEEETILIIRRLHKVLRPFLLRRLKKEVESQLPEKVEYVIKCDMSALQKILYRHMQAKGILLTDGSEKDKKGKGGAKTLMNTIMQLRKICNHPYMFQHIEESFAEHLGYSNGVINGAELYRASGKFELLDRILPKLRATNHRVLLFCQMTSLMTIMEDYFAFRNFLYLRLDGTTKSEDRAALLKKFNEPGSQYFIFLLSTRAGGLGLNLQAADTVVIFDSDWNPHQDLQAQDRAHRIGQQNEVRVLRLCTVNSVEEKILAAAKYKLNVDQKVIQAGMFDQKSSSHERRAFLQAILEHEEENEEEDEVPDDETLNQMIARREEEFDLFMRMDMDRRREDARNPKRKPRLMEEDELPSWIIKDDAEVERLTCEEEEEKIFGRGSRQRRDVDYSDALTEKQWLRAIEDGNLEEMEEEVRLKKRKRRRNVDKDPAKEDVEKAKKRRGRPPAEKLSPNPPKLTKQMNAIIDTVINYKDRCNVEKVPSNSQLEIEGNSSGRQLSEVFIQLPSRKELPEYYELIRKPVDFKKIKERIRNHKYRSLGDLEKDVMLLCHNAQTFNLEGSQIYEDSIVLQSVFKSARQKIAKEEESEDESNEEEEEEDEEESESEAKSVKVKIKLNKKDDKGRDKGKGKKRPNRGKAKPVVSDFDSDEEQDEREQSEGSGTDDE

Row | Dmax (SMARCA2 [1]) | DC50 (SMARCA2 [1]; A549 cells) | Dmax (SMARCA4) | DC50 (SMARCA4) | Dmax (SMARCA2 [2]; 24 h) | DC50 (SMARCA2 [2]; MV4-11 cells, 24 h) | Selectivity in MV411 (SMARCA2 [2]; MV4-11 cells) | SMARCA4 MSD MV411 degradation 24 h: average Dmax % (SMARCA4) | SMARCA2 MSD A549 degradation 24 h: Average Dmax % (SMARCA2 [1]; A549 cells) | SMARCA2 MSD MV411 degradation 24 h: average Dmax % (SMARCA2 [2]; MV4-11 cells, 24 h) | SMILES
1 | > 90% | > 100 nM | 50 to 70% | > 100 nM | 70 to 90% | 1 to 10 nM | C (C (10-100 fold)) | – | – | – | C#Cc1ccc(CNC(=O)[C@@H]2C[C@@H](O)CN2C(=O)[C@@H](NC(=O)C2CCC3(CC2)CC(N2CCC(N4CC(C(=O)N5CCN6c7cc(-c8ccccc8O)nnc7NC[C@H]6C5)C4)CC2)C3)C(C)(C)C)cc1 (some centres unmarked) [I-92]
2 | > 90% | 50 to 100 nM | 50 to 70% | > 100 nM | 70 to 90% | 1 to 10 nM | C (C (10-100 fold)) | – | – | – | C#Cc1ccc(CNC(=O)[C@@H]2C[C@@H](O)CN2C(=O)[C@@H](NC(=O)[C@H]2CCC3(CC2)C[C@H](N2CCC(N4CC5(CC(N6CCN7c8cc(-c9ccccc9O)nnc8NC[C@H]7C6)C5)C4)CC2)C3)C(C)(C)C)cc1 (single isomer, unassigned) [I-223]
3 | > 90% | > 100 nM | 50 to 70% | > 100 nM | 50 to 70% | 10 to 100 nM | B (B (>100-500 fold)) | – | – | – | C#Cc1ccc(CNC(=O)[C@@H]2C[C@@H](O)CN2C(=O)[C@@H](NC(=O)N2CCN(CC3CCN(c4cnc(N5CCc6[nH]c7nnc(-c8ccccc8O)cc7c6[C@H]5C)nc4)CC3)CC2)C(C)(C)C)cc1 [I-159]
4 | 70 to 90% | > 100 nM | 70 to 90% | > 100 nM | 50 to 70% | 10 to 100 nM | D (D (<10 fold)) | – | – | – | C#Cc1ccc(CNC(=O)[C@@H]2C[C@@H](O)CN2C(=O)[C@@H](NC(=O)N2CC3(CC(N4CCC(c5cnc(N6CCc7[nH]c8nnc(-c9ccccc9O)cc8c7[C@@H]6C)s5)CC4)C3)C2)C(C)(C)C)cc1 [I-335]
5 | > 90% | > 100 nM | 70 to 90% | > 100 nM | 70 to 90% | 10 to 100 nM | D (D (<10 fold)) | – | – | – | C#Cc1ccc(CNC(=O)[C@@H]2C[C@@H](O)CN2C(=O)[C@@H](NC(=O)N2CC3(CN(CC4CCN(c5cnc(N6CCc7[nH]c8nnc(-c9ccccc9O)cc8c7[C@@H]6C)nc5)CC4)C3)C2)C(C)(C)C)cc1 [I-165]
6 | 70 to 90% | > 100 nM | < 50% | > 100 nM | < 50% | > 100 nM | C (C (10-100 fold)) | – | – | – | C#Cc1ccc(CNC(=O)[C@@H]2C[C@@H](O)CN2C(=O)[C@@H](NC(=O)N2CCC(N3CC4(CC(N5CC6(CC(N7CCc8[nH]c9nnc(-c%10ccccc%10O)cc9c8[C@H]7C)C6)C5)C4)C3)CC2)C(C)(C)C)cc1 [I-209]
7 | > 90% | > 100 nM | 50 to 70% | > 100 nM | 70 to 90% | 10 to 100 nM | C (C (10-100 fold)) | – | – | – | C#Cc1ccc(CNC(=O)[C@@H]2C[C@@H](O)CN2C(=O)[C@@H](NC(=O)[C@H]2CCC3(CC2)C[C@H](N2CCC(N(C)CCN4CCN5c6cc(-c7ccccc7O)nnc6NC[C@H]5C4)CC2)C3)C(C)(C)C)cc1 (single isomer, unassigned) [I-246]
8 | > 90% | > 100 nM | 70 to 90% | > 100 nM | 50 to 70% | 10 to 100 nM | C (C (10-100 fold)) | – | – | – | C#Cc1ccc(CNC(=O)[C@@H]2C[C@@H](O)CN2C(=O)[C@@H](NC(=O)N2CC3(CC(N4C[C@H]5CN(c6cnc(N7CCc8[nH]c9nnc(-c%10ccccc%10O)cc9c8[C@@H]7C)nc6)C[C@H]5C4)C3)C2)C(C)(C)C)cc1 [I-172]
9 | < 50% | > 100 nM | < 50% | > 100 nM | < 50% | > 100 nM | C (C (10-100 fold)) | – | – | – | C#Cc1ccc(CNC(=O)[C@@H]2C[C@@H](O)CN2C(=O)[C@@H](NC(=O)C2CCC3(CC2)CC(N2CCC(c4ccc(N5CCN6c7cc(-c8ccccc8O)nnc7NC[C@H]6C5)cc4)CC2)C3)C(C)(C)C)cc1 (some centres unmarked) [I-95]
10 | > 90% | > 100 nM | > 90% | 10 to 100 nM | > 90% | 1 to 10 nM | D (D (<10 fold)) | – | – | – | C#Cc1ccc(CNC(=O)[C@@H]2C[C@@H](O)CN2C(=O)[C@@H](NC(=O)[C@H]2CC3(C2)C[C@H](N2CCN(C(=O)CN4CCN5c6cc(-c7ccccc7O)nnc6NC[C@H]5C4)CC2)C3)C(C)(C)C)cc1 (single isomer, unassigned) [I-239]
11 | > 90% | 50 to 100 nM | < 50% | > 100 nM | 70 to 90% | 1 to 10 nM | A (A (>500 fold)) | – | – | – | C#Cc1ccc(CNC(=O)[C@@H]2C[C@@H](O)CN2C(=O)[C@@H](NC(=O)C2CC3(C2)CC(N2CCC(N4CCC(N5CCN6c7cc(-c8ccccc8O)nnc7NC[C@H]6C5)CC4)CC2)C3)C(C)(C)C)cc1 (some centres unmarked) [I-137]
12 | 50 to 70% | > 100 nM | < 50% | > 100 nM | < 50% | > 100 nM | C (C (10-100 fold)) | – | – | – | C#Cc1ccc(CNC(=O)[C@@H]2C[C@@H](O)CN2C(=O)[C@@H](NC(=O)N2CCC(CN3CCC(N4CCC(N5CCc6[nH]c7nnc(-c8ccccc8O)cc7c6[C@H]5C)CC4)CC3)CC2)C(C)(C)C)cc1 [I-189]
13 | > 90% | < 10 nM | > 90% | < 1 nM | > 90% | < 1 nM | C (C (10-100 fold)) | – | – | – | C#Cc1ccc([C@H](CO)NC(=O)[C@@H]2C[C@@H](O)CN2C(=O)[C@@H](NC(=O)N2CC3(CC(N4CCC(c5cnc(N6CCc7[nH]c8nnc(-c9ccccc9O)cc8c7[C@H]6C)nc5)CC4)C3)C2)C(C)(C)C)cc1 [I-168]
14 | – | > 100 nM | – | > 100 nM | – | – | D (D (<10 fold)) | D (D (<50% degradation)) | – | – | C#Cc1ccc(CNC(=O)[C@@H]2C[C@@H](O)CN2C(=O)[C@H](NC(=O)[C@H]2CCC3(CC2)C[C@H](N2CCN(c4cnc(N5CCN6c7cc(-c8ccccc8O)nnc7NC[C@H]6C5)nc4)CC2)C3)C(C)(C)CCO)c(Cl)c1 (some centres unmarked) [I-307]
15 | – | 50 to 100 nM | – | 10 to 100 nM | – | 1 to 10 nM | C (C (10-100 fold)) | – | – | – | C#Cc1ccc(CNC(=O)[C@@H]2C[C@@H](O)CN2C(=O)[C@@H](NC(=O)[C@H]2CC3(C2)C[C@H](N2CCC(N4CCC(N5CCN6c7cc(-c8ccccc8O)nnc7NC[C@H]6C5)CC4)CC2)C3)C(C)(C)C)c(O)c1 (some centres unmarked) [I-242]
16 | 70 to 90% | 10 to 50 nM | 70 to 90% | 1 to 10 nM | > 90% | 1 to 10 nM | D (D (<10 fold)) | – | – | – | Cc1ncsc1-c1ccc(CNC(=O)[C@@H]2C[C@@H](O)CN2C(=O)C(c2cc(OCCCCN3CCC(c4cnc(N5CCc6[nH]c7nnc(-c8ccccc8O)cc7c6[C@H]5C)nc4)CC3)no2)C(C)C)cc1 (some centres unmarked) [I-35]
17 | – | 10 to 50 nM | – | > 100 nM | – | 1 to 10 nM | A (A (>500 fold)) | D (D (<50% degradation)) | B (B (>70-90% degradation)) | A (A (>90% degradation)) | Cc1ncsc1-c1ccc(CNC(=O)[C@@H]2C[C@@H](O)CN2C(=O)[C@@H](NC(=O)[C@H]2CC3(C2)C[C@H](N2CCC(c4ccnc(N5CCN6c7cc(-c8ccccc8O)nnc7NC[C@H]6C5)n4)CC2)C3)C(C)(C)C)cc1 (single isomer, unassigned) [I-27]
18 | > 90% | 10 to 50 nM | 50 to 70% | > 100 nM | 70 to 90% | 10 to 100 nM | C (C (10-100 fold)) | – | – | – | C#Cc1ccc(CNC(=O)[C@@H]2C[C@@H](O)CN2C(=O)[C@@H](NC(=O)N2CCN(Cc3ccc(-c4cnc(N5CCN6c7cc(-c8ccccc8O)nnc7NC[C@H]6C5)nc4)cc3)CC2)C(C)(C)C)cc1 [I-269]
19 | > 90% | > 100 nM | < 50% | > 100 nM | 70 to 90% | 10 to 100 nM | B (B (>100-500 fold)) | – | – | – | C#Cc1ccc(CNC(=O)[C@@H]2C[C@@H](O)CN2C(=O)[C@@H](NC(=O)CCCCCN2CCC(N3CC4(CC(N5CCN6c7cc(-c8ccccc8O)nnc7NC[C@H]6C5)C4)C3)CC2)C(C)(C)C)cc1 [I-251]
20 | > 90% | > 100 nM | 50 to 70% | > 100 nM | > 90% | 1 to 10 nM | C (C (10-100 fold)) | – | – | – | C#Cc1ccc([C@H](C)NC(=O)[C@@H]2C[C@@H](O)CN2C(=O)[C@@H](c2cc(OCCN3CCN4c5cc(-c6ccccc6O)nnc5NC[C@H]4C3)no2)C(C)C)cc1 (single isomer, unassigned) [I-273]
